# Results reported in PubChem BioAssay (NCI).
#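 Grown in 96-well plates, cells were treated for 48 hours with each compound at five concentrations. Insufficient inhibition: endpoint recorded as highest concentration tested. TGI: total growth inhibition.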
# What was measured:
# Test in all cases: NCI tumour cell line growth inhibition, 48 h
# MOLT-4 leukemia = tested on: MOLT-4 leukemia
# UACC-62 melanoma = tested on: UACC-62 melanoma
# OVCAR-4 ovarian = tested on: OVCAR-4 ovarian
# SNB-78 CNS = tested on: SNB-78 CNS
# TK-10 renal = tested on: TK-10 renal
# XF 498 CNS = tested on: XF 498 CNS
# SN12C renal = tested on: SN12C renal
# NCI-H460 lung = tested on: NCI-H460 lung
# UO-31 renal = tested on: UO-31 renal
# U251 CNS = tested on: U251 CNS
# EKVX NSCLC = tested on: EKVX NSCLC
# HOP-62 NSCLC = tested on: HOP-62 NSCLC
# OVCAR-5 ovarian = tested on: OVCAR-5 ovarian
# CAKI-1 renal = tested on: CAKI-1 renal
# MALME-3M melanoma = tested on: MALME-3M melanoma
# SF-268 CNS = tested on: SF-268 CNS
# CCRF-CEM leukemia = tested on: CCRF-CEM leukemia
# NCI-H23 lung = tested on: NCI-H23 lung
# SF-295 CNS = tested on: SF-295 CNS
# OVCAR-8 ovarian = tested on: OVCAR-8 ovarian
# HOP-18 NSCLC = tested on: HOP-18 NSCLC
# SK-MEL-2 melanoma = tested on: SK-MEL-2 melanoma
# RXF 393 renal = tested on: RXF 393 renal
# HCT-116 colon = tested on: HCT-116 colon
# IGROV1 ovarian = tested on: IGROV1 ovarian
# HOP-92 NSCLC = tested on: HOP-92 NSCLC
# SK-MEL-5 melanoma = tested on: SK-MEL-5 melanoma
# RXF-631 renal = tested on: RXF-631 renal
# A549 NSCLC = tested on: A549 NSCLC
# HL-60(TB) leukemia = tested on: HL-60(TB) leukemia
# SW-620 colon = tested on: SW-620 colon
# KM20L2 colon = tested on: KM20L2 colon
# ACHN renal = tested on: ACHN renal
# UACC-257 melanoma = tested on: UACC-257 melanoma
# LXFL 529 NSCLC = tested on: LXFL 529 NSCLC
# K-562 leukemia = tested on: K-562 leukemia
# 786-0 renal = tested on: 786-0 renal
# HCT-15 colon = tested on: HCT-15 colon
# COLO 205 colon = tested on: COLO 205 colon
# NCI-H226 lung = tested on: NCI-H226 lung
# SF-539 CNS = tested on: SF-539 CNS
# NCI-H522 lung = tested on: NCI-H522 lung
# A498 renal = tested on: A498 renal
# M19-MEL melanoma = tested on: M19-MEL melanoma
# SK-MEL-28 melanoma = tested on: SK-MEL-28 melanoma
# HT29 colon = tested on: HT29 colon
# KM12 colon = tested on: KM12 colon
# M14 melanoma = tested on: M14 melanoma
# SNB-19 CNS = tested on: SNB-19 CNS
# SK-OV-3 ovarian = tested on: SK-OV-3 ovarian
# RPMI-8226 leukemia = tested on: RPMI-8226 leukemia
# DMS 114 small cell lung = tested on: DMS 114 small cell lung
# DLD-1 colon = tested on: DLD-1 colon
# SNB-75 CNS = tested on: SNB-75 CNS
# DMS 273 small cell lung = tested on: DMS 273 small cell lung
# LOX IMVI melanoma = tested on: LOX IMVI melanoma
# HCC-2998 colon = tested on: HCC-2998 colon
# OVCAR-3 ovarian = tested on: OVCAR-3 ovarian
# SR leukemia = tested on: SR leukemia
smiles,measurement,setting,value
CCN(CC)Cc1cc(Nc2c3ccccc3nc3c4ccccc4n(C)c23)ccc1O,TGI,MOLT-4 leukemia,8.47 µM
same,TGI,UACC-62 melanoma,17.2 µM
same,TGI,OVCAR-4 ovarian,27.4 µM
same,TGI,SNB-78 CNS,41.2 µM
same,TGI,TK-10 renal,28.2 µM
same,TGI,XF 498 CNS,17.1 µM
same,TGI,SN12C renal,27.5 µM
same,TGI,NCI-H460 lung,24.5 µM
same,TGI,UO-31 renal,22.8 µM
same,TGI,U251 CNS,22.7 µM
same,TGI,EKVX NSCLC,29.7 µM
same,TGI,HOP-62 NSCLC,24.3 µM
same,TGI,OVCAR-5 ovarian,21.9 µM
same,TGI,CAKI-1 renal,26 µM
same,TGI,MALME-3M melanoma,27 µM
same,TGI,SF-268 CNS,52.4 µM
same,TGI,CCRF-CEM leukemia,6.44 µM
same,TGI,NCI-H23 lung,30.3 µM
same,TGI,SF-295 CNS,21.8 µM
same,TGI,OVCAR-8 ovarian,15.6 µM
same,TGI,HOP-18 NSCLC,27.1 µM
same,TGI,SK-MEL-2 melanoma,36.2 µM
same,TGI,RXF 393 renal,25.5 µM
same,TGI,HCT-116 colon,19.5 µM
same,TGI,IGROV1 ovarian,31.2 µM
same,TGI,HOP-92 NSCLC,18.9 µM
same,TGI,SK-MEL-5 melanoma,6.6 µM
same,TGI,RXF-631 renal,13.8 µM
same,TGI,A549 NSCLC,28.2 µM
same,TGI,HL-60(TB) leukemia,12.9 µM
same,TGI,SW-620 colon,18.6 µM
same,TGI,KM20L2 colon,17.3 µM
same,TGI,ACHN renal,24 µM
same,TGI,UACC-257 melanoma,23.3 µM
same,TGI,LXFL 529 NSCLC,14.7 µM
same,TGI,K-562 leukemia,7.65 µM
same,TGI,786-0 renal,14 µM
same,TGI,HCT-15 colon,22.8 µM
same,TGI,COLO 205 colon,17.1 µM
same,TGI,NCI-H226 lung,57.4 µM
same,TGI,SF-539 CNS,10.9 µM
same,TGI,NCI-H522 lung,6.39 µM
same,TGI,A498 renal,27.8 µM
same,TGI,M19-MEL melanoma,19 µM
same,TGI,SK-MEL-28 melanoma,15.3 µM
same,TGI,HT29 colon,17.8 µM
same,TGI,KM12 colon,23.9 µM
same,TGI,M14 melanoma,3.68 µM
same,TGI,SNB-19 CNS,33.4 µM
same,TGI,SK-OV-3 ovarian,31.6 µM
same,TGI,RPMI-8226 leukemia,15.3 µM
same,TGI,DMS 114 small cell lung,19.5 µM
same,TGI,DLD-1 colon,21 µM
same,TGI,SNB-75 CNS,27.3 µM
same,TGI,DMS 273 small cell lung,17.9 µM
same,TGI,LOX IMVI melanoma,9.1 µM
CCCCCCCCCCCC(=O)c1c(O)cccc1O,TGI,MOLT-4 leukemia,47.8 µM
same,TGI,UACC-62 melanoma,34.3 µM
same,TGI,OVCAR-4 ovarian,37.6 µM
same,TGI,SNB-78 CNS,43.9 µM
same,TGI,TK-10 renal,92.4 µM
same,TGI,XF 498 CNS,32.4 µM
same,TGI,SN12C renal,34.7 µM
same,TGI,NCI-H460 lung,42.9 µM
same,TGI,UO-31 renal,30.2 µM
same,TGI,U251 CNS,34 µM
same,TGI,EKVX NSCLC,33.6 µM
same,TGI,HOP-62 NSCLC,31.5 µM
same,TGI,OVCAR-5 ovarian,28.5 µM
same,TGI,CAKI-1 renal,56.7 µM
same,TGI,MALME-3M melanoma,29.5 µM
same,TGI,SF-268 CNS,30.4 µM
same,TGI,CCRF-CEM leukemia,62.8 µM
same,TGI,NCI-H23 lung,32.2 µM
same,TGI,SF-295 CNS,31.4 µM
same,TGI,OVCAR-8 ovarian,33.5 µM
same,TGI,HOP-18 NSCLC,31 µM
same,TGI,SK-MEL-2 melanoma,30 µM
same,TGI,RXF 393 renal,40.4 µM
same,TGI,HCC-2998 colon,34.3 µM
same,TGI,HCT-116 colon,33.1 µM
same,TGI,IGROV1 ovarian,32.4 µM
same,TGI,HOP-92 NSCLC,32.3 µM
same,TGI,SK-MEL-5 melanoma,26.7 µM
same,TGI,RXF-631 renal,35.5 µM
same,TGI,A549 NSCLC,33.7 µM
same,TGI,HL-60(TB) leukemia,43.6 µM
same,TGI,SW-620 colon,33.5 µM
same,TGI,KM20L2 colon,48.5 µM
same,TGI,ACHN renal,33.8 µM
same,TGI,UACC-257 melanoma,30.8 µM
same,TGI,LXFL 529 NSCLC,32.6 µM
same,TGI,K-562 leukemia,> 100 µM
same,TGI,786-0 renal,32.8 µM
same,TGI,HCT-15 colon,33.4 µM
same,TGI,COLO 205 colon,29 µM
same,TGI,NCI-H226 lung,34.7 µM
same,TGI,SF-539 CNS,32.4 µM
same,TGI,NCI-H522 lung,33.2 µM
same,TGI,M19-MEL melanoma,34.5 µM
same,TGI,SK-MEL-28 melanoma,32 µM
same,TGI,HT29 colon,45 µM
same,TGI,KM12 colon,30 µM
same,TGI,M14 melanoma,33.3 µM
same,TGI,SNB-19 CNS,30.4 µM
same,TGI,OVCAR-3 ovarian,31.4 µM
same,TGI,SK-OV-3 ovarian,85.8 µM
same,TGI,RPMI-8226 leukemia,68.5 µM
same,TGI,DMS 114 small cell lung,34 µM
same,TGI,DLD-1 colon,33.8 µM
same,TGI,SNB-75 CNS,31.9 µM
same,TGI,SR leukemia,49 µM
same,TGI,DMS 273 small cell lung,34 µM
same,TGI,LOX IMVI melanoma,33.7 µM
